Entries after “also recorded” stand apart in the source; their conditions may differ. Counter-ions that a name gives are not always drawn.
How the values were obtained:
[1] = tested on: HeLa-ACE2 cells; experiment: SARS2-PsV-induced PS externalization in HeLa-ACE2 cells; format: cell-based; conditions: for SARS2-PsV-induced PS externalization: 1 h
[2] = tested on: HeLa-ACE2 cells; experiment: Authentic SARS-CoV-2-induced PS externalization in HeLa-ACE2 cells; format: cell-based; conditions: 10 μM; 1 h pretreatment; 10 MOI
[3] = tested on: HEK 293T-ACE2-TMPRSS2 cells; experiment: SARS2-PsV-induced cytosolic Ca2+ signals; format: cell-based; conditions: pretreatment: BAPTA-AM 3 μM, camostat 10 μM, A6-001 10 μM
[4] = tested on: SARS-CoV-2 Spike pseudotyped virus (SARS2-PsV); experiment: microbe, parasite or virus in culture; format: cell-based; conditions: BAPTA-AM 10 μM
[5] = tested on: endogenous Cl- currents in HEK 293 cells; conditions: ref Braga et al., 2021; cited from earlier work
[6] = tested on: PS scrambling induced by ionomycin; experiment: Ionomycin-induced PS scrambling, camostat control; format: cell-based; conditions: camostat 100 μM, 1 h prior; ionomycin 10 μM, 10 min
[7] = tested on: SARS-CoV-2; conditions: HeLa-ACE2 cells; ref Shang et al., 2020; cited from earlier work
[8] = target: T1, human ANO6 (Homo sapiens, UniProt Q4KMQ2); experiment: YFP fluorescence quenching-based anion channel assay, FRT-ANO6 cells; format: cell-based; conditions: ANO1, ANO2 and ANO6
T1 sequence (Q4KMQ2 1-931 isoform Q4KMQ2-2): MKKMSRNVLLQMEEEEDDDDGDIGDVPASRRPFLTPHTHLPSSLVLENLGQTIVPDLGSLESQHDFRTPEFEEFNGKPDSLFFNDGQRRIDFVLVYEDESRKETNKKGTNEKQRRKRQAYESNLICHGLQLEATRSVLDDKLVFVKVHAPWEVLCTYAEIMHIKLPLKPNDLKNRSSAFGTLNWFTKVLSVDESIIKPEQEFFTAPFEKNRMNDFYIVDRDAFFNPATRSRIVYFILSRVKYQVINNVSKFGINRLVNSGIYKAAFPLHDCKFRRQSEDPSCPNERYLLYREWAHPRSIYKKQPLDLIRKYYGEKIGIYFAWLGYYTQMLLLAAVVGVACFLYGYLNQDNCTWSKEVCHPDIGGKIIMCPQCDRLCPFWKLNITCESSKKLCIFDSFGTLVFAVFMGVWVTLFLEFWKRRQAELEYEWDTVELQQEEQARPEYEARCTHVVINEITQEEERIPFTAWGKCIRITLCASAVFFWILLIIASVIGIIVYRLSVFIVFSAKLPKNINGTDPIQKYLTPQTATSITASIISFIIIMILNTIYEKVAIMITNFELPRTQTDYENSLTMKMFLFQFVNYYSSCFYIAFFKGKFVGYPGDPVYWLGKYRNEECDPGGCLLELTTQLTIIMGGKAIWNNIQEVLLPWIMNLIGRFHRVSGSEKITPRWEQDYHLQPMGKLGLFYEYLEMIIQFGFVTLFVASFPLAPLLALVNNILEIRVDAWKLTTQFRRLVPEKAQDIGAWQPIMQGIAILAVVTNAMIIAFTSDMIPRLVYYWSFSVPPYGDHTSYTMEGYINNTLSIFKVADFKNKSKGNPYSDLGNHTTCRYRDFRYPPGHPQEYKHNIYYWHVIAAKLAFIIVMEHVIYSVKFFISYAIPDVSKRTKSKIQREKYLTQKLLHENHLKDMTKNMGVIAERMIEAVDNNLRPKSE

[9] = tested on: cytosolic Ca2+ signals; experiment: Ionomycin-induced cytosolic Ca2+ signals; format: cell-based; conditions: at 30 μM
[10] = tested on: cytosolic Ca2+ signals; conditions: ref Braga et al., 2021; cited from earlier work

Q: Which “SARS2-PsV-induced PS externalization” value ([1]; 10 μM) does the source give for `CC(=O)OCOC(=O)CN(CC(=O)OCOC(C)=O)c1ccccc1OCCOc1ccccc1N(CC(=O)OCOC(C)=O)CC(=O)OCOC(C)=O` [BAPTA-AM, reference compound] here?
A: nullified; also recorded: inhibits

Q: What about the “authentic SARS-CoV-2 virus-evoked PS scrambling” value [2] of the same molecule?
A: suppressed

Q: And the “SARS2-PsV-induced cytosolic Ca2+ signals” value [3]?
A: nullified

Q: What about the “single-round infection of SARS2-PsV” value [4] of the same molecule?
A: significantly reduced

Q: Which “endogenous Cl- currents / Cl- channel activities” value [5] does the source give for `CC[C@@H](C(=O)[C@@H](C)[C@@H](O)[C@H](C)[C@@H]1O[C@@H]([C@@H](CC)C(=O)O)CC[C@@H]1C)[C@H]1O[C@]2(C=C[C@@H](O)[C@]3(CC[C@@](C)([C@H]4CC[C@](O)(CC)[C@H](C)O4)O3)O2)[C@H](C)C[C@@H]1C` [salinomycin] here?
A: did not affect

Q: With `CN(C)C(=O)COC(=O)Cc1ccc(OC(=O)c2ccc(NC(=N)N)cc2)cc1` [camostat, camostat mesylate, reference compound] as the molecule, how does the “SARS2-PsV-induced PS externalization” value ([1]; 100 μM) read?
A: reduced; also recorded: inhibits

Q: And the “PS externalization evoked by trypsin-pretreated SARS2-PsV” value ([1]; trypsin 10 μg/mL, 10 min, 37°C)?
A: but not by trypsinized SARS2-PsV

Q: And the “SARS2-PsV-induced cytosolic Ca2+ signals” value [3]?
A: significantly reduced

Q: What about the “PS scrambling induced by ionomycin” value [6] of the same molecule?
A: did not affect

Q: And the SARS-CoV-2 cell entry [7]?
A: inhibits

Q: For `CC(C)/N=c1\cc2n(-c3ccc(Cl)cc3)c3ccccc3nc-2cc1Nc1ccc(Cl)cc1` [clofazimine], which “endogenous Cl- currents / Cl- channel activities” value [5] is on record?
A: did not affect

Q: Which results are given for `CCOC(=O)c1c(NCc2ccc(SC)cc2)c2cccc(C)c2[nH]c1=O` [A6-004, ethyl 8-methyl-4-((4-(methylthio)benzyl)amino)-2-oxo-1,2-dihydroquinoline-3-carboxylate]?
A: IC50 on all examined ANOs [8]: micromolar ranges; ionomycin-induced cytosolic Ca2+ signals [9]: partially reduced; SARS2-PsV-induced PS externalization ([1]; 10 μM): strongly inhibited; also recorded: inhibit

Q: Which results are given for `O=C(Nc1ccc([N+](=O)[O-])cc1Cl)c1cc(Cl)ccc1O` [niclosamide]?
A: endogenous Cl- currents / Cl- channel activities [5]: partial inhibitory effect; cytosolic Ca2+ signals [10]: reduced

— paper PMC9250890 (Cell Reports, 2022)
